This is an account of results in PubChem BioAssay AID290 (DTP/NCI, 2004).

In the test the test system is mice, P1798 lymphosarcoma sc, survival or tumor weight T/C. Briefly: NCI In Vivo Anticancer Drug Screen. Data for tumor model P1798 Lymphosarcoma (subcutaneous) in unknown mice. Conditions: endpoint: mean tumor weight, higher = larger tumour. As for the experimental part:
The antitumor activity of compounds was measured in mice bearing transplantable tumors. Survival or tumor size were measured and the results are expressed as the measurement made in the treated group (T) divided by the measurement made in the vehicle treated control group (C). The tumor model used in this assay is P1798 Lymphosarcoma (subcutaneous) in unknown mice

[1] abbreviates: dose: 12.5 mg/kg/injection, schedule: Q01DX010 (ip), vehicle: water.

Values joined by “and” are separate entries in the source; they are usually repeats but may differ in a detail not shown here. Identical values can stand only once. Inconclusive results are not listed.

For `c1ccc(CNc2ncnc3[nH]ncc23)cc1`, under “dose: 15.6 mg/kg/injection, schedule: Q01DX010 (ip), vehicle: carboxymethylcellulose (CMC)”, the T/C is 82 % of control.

For `O=C(O)C(=O)c1ccc(-c2ccccc2)cc1`, the T/C reads like this: (dose: 31.0 mg/kg/injection, schedule: Q01DX010 (ip), vehicle: methylcellulose (MC)) 82 % of control; (dose: 62.5 mg/kg/injection, schedule: Q01DX010 (ip), vehicle: methylcellulose (MC)) 87 % of control; (dose: 125.0 mg/kg/injection, schedule: Q01DX010 (ip), vehicle: methylcellulose (MC)) 106 % of control.

`C[C@@H]1C[C@@H]([C@H](O)CC2CC(=O)NC(=O)C2)C(=O)[C@@H](C)C1`: the T/C (dose: 1.6 mg/kg/injection, schedule: Q01DX010 (ip), vehicle: water) was 86 % of control; the T/C (dose: 3.1 mg/kg/injection, schedule: Q01DX010 (ip), vehicle: water) was 96 % of control; the T/C (dose: 6.3 mg/kg/injection, schedule: Q01DX010 (ip), vehicle: water) is 96 % of control; the T/C under setting [1] is 98 % of control.

Consider `NC(=O)c1ccc(N)nc1`, for which the T/C (dose: 0.63 mg/kg/injection, schedule: Q01DX010 (ip), vehicle: saline) was 71 % of control; the T/C (dose: 1.25 mg/kg/injection, schedule: Q01DX010 (ip), vehicle: saline) was 82 % of control; the T/C (dose: 2.5 mg/kg/injection, schedule: Q01DX010 (ip), vehicle: saline) is 52 % of control; the T/C (dose: 5.0 mg/kg/injection, schedule: Q01DX010 (ip), vehicle: saline) was 21 % of control.

On to `S=C(N=Nc1ccccc1)NNc1ccccc1`, for which the T/C (dose: 37.5 mg/kg/injection, schedule: Q01DX010 (ip), vehicle: carboxymethylcellulose (CMC)) was 64 % of control.

Take `N=C(N)c1ccc(Nc2ccc(C(=N)N)cc2)cc1`: the T/C is 105 % of control (dose: 3.0 mg/kg/injection, schedule: Q01DX010 (ip), vehicle: saline); 117 % of control (dose: 6.0 mg/kg/injection, schedule: Q01DX010 (ip), vehicle: saline); 66 % of control (dose: 6.25 mg/kg/injection, schedule: Q01DX010 (ip), vehicle: methylcellulose (MC)); 77 % of control (dose: 12.0 mg/kg/injection, schedule: Q01DX010 (ip), vehicle: saline); 77 % of control (dose: 12.5 mg/kg/injection, schedule: Q01DX010 (ip), vehicle: methylcellulose (MC)).

Take `CCn1cnc2c(=S)nc[nH]c21`: the T/C (dose: 7.75 mg/kg/injection, schedule: Q01DX010 (ip), vehicle: carboxymethylcellulose (CMC)) was 117 % of control; the T/C (dose: 15.5 mg/kg/injection, schedule: Q01DX010 (ip), vehicle: carboxymethylcellulose (CMC)) was 95 % of control; the T/C (dose: 31.0 mg/kg/injection, schedule: Q01DX010 (ip), vehicle: carboxymethylcellulose (CMC)) was 82 % of control.

For `CCC1=C(c2cc(Cl)c3ccccc3c2OCC(=O)O)OC(CC)(C(=O)c2cc(Cl)c3ccccc3c2OCC(=O)O)CC1` (configuration not stated), the T/C was 94 % of control (dose: 30.0 mg/kg/injection, schedule: Q01DX010 (ip), vehicle: steriod suspending solution); 112 % of control (dose: 60.0 mg/kg/injection, schedule: Q01DX010 (ip), vehicle: steriod suspending solution); 65 % of control (dose: 120.0 mg/kg/injection, schedule: Q01DX010 (ip), vehicle: steriod suspending solution); 85 % of control (dose: 240.0 mg/kg/injection, schedule: Q01DX010 (ip), vehicle: steriod suspending solution).

For `CC(=O)[C@@]1(O)CC[C@H]2[C@@H]3C[C@H](C)C4=CC(=O)C=C[C@]4(C)[C@@]3(F)[C@@H](O)C[C@@]21C`, the T/C reads like this: (dose: 8.0 mg/kg/injection, schedule: Q01DX010 (sc), vehicle: steriod suspending solution) 37 % of control; (dose: 16.0 mg/kg/injection, schedule: Q01DX010 (sc), vehicle: steriod suspending solution) 18 % of control.

As for `Cn1c(O)c(N=NC(N)=S)c2ccccc21`, the T/C is, setting by setting: (dose: 25.0 mg/kg/injection, schedule: Q01DX011 (ip), vehicle: carboxymethylcellulose (CMC)) 206 % of control; (dose: 50.0 mg/kg/injection, schedule: Q01DX011 (ip), vehicle: carboxymethylcellulose (CMC)) 117 % of control; (dose: 100.0 mg/kg/injection, schedule: Q01DX011 (ip), vehicle: carboxymethylcellulose (CMC)) 87 % of control.

Take `O=C(Nc1ccc(C2=NCCN2)cc1)c1ccc(C(=O)Nc2ccc(C3=NCCN3)cc2)c(Cl)c1`: the T/C was 70 % of control under setting [1]; 7 % of control (dose: 14.0 mg/kg/injection, schedule: Q01DX011 (ip), vehicle: carboxymethylcellulose (CMC)); 80 % of control (dose: 28.0 mg/kg/injection, schedule: Q01DX001 (ip), vehicle: carboxymethylcellulose (CMC)); 33 % of control (dose: 55.0 mg/kg/injection, schedule: Q01DX001 (ip), vehicle: carboxymethylcellulose (CMC)).

Regarding `COc1ccc(-c2c(CC(=O)O)c3cc(OC)ccc3n2Cc2ccc(Cl)cc2)cc1`, the T/C was 105 % of control (dose: 125.0 mg/kg/injection, schedule: Q01DX010 (ip), vehicle: saline); 108 % of control (dose: 250.0 mg/kg/injection, schedule: Q01DX010 (ip), vehicle: saline); 112 % of control (dose: 500.0 mg/kg/injection, schedule: Q01DX010 (ip), vehicle: saline); 110 % of control (dose: 1000.0 mg/kg/injection, schedule: Q01DX010 (ip), vehicle: saline).

As for `CS(=O)(=O)OCCCCOS(C)(=O)=O`, the T/C runs as follows: (dose: 2.0 mg/kg/injection, schedule: Q01DX010 (ip), vehicle: methylcellulose (MC)) 74 % of control and 85 % of control; (dose: 4.0 mg/kg/injection, schedule: Q01DX010 (ip), vehicle: methylcellulose (MC)) 95 % of control; (dose: 8.0 mg/kg/injection, schedule: Q01DX010 (ip), vehicle: methylcellulose (MC)) 117 % of control and 92 % of control; (dose: 16.0 mg/kg/injection, schedule: Q01DX010 (ip), vehicle: methylcellulose (MC)) 50 % of control.

On to `O=CCC(O)C(O)C(O)CO` (configuration not stated), for which the T/C is 67 % of control (dose: 16.0 mg/kg/injection, schedule: Q01DX010 (ip), vehicle: carboxymethylcellulose (CMC)); 74 % of control (dose: 31.2 mg/kg/injection, schedule: Q01DX010 (ip), vehicle: carboxymethylcellulose (CMC)); 70 % of control (dose: 62.5 mg/kg/injection, schedule: Q01DX010 (ip), vehicle: carboxymethylcellulose (CMC)); 36 % of control and 61 % of control (dose: 125.0 mg/kg/injection, schedule: Q01DX010 (ip), vehicle: carboxymethylcellulose (CMC)); 44 % of control (dose: 250.0 mg/kg/injection, schedule: Q01DX010 (ip), vehicle: carboxymethylcellulose (CMC)); 42 % of control (dose: 500.0 mg/kg/injection, schedule: Q01DX010 (ip), vehicle: carboxymethylcellulose (CMC)). In addition, the T/C (dose: 1000.0 mg/kg/injection, schedule: Q01DX010 (ip), vehicle: carboxymethylcellulose (CMC)) was 19 % of control.

Take `C[C@@H]1C[C@H]2CC[C@H](O2)[C@H](C)C(=O)O[C@@H](C)C[C@@H]2CC[C@@H](O2)[C@@H](C)C(=O)O[C@H](C)C[C@H]2CC[C@H](O2)[C@H](C)C(=O)O[C@@H](C)C[C@@H]2CC[C@@H](O2)[C@@H](C)C(=O)O1`: the T/C is, setting by setting: (dose: 45.0 mg/kg/injection, schedule: Q01DX011 (ip), vehicle: other) 93 % of control; (dose: 90.0 mg/kg/injection, schedule: Q01DX011 (ip), vehicle: other) 89 % of control; (dose: 180.0 mg/kg/injection, schedule: Q01DX011 (ip), vehicle: other) 83 % of control; (dose: 360.0 mg/kg/injection, schedule: Q01DX011 (ip), vehicle: other) 61 % of control.

For the molecule `N=C(N)SCc1c2ccccc2c(CSC(=N)N)c2ccccc12`, the T/C was 85 % of control (dose: 2.5 mg/kg/injection, schedule: Q01DX011 (ip), vehicle: carboxymethylcellulose (CMC)); 99 % of control (dose: 5.0 mg/kg/injection, schedule: Q01DX011 (ip), vehicle: carboxymethylcellulose (CMC)); 50 % of control (dose: 10.0 mg/kg/injection, schedule: Q01DX011 (ip), vehicle: carboxymethylcellulose (CMC)); 40 % of control (dose: 20.0 mg/kg/injection, schedule: Q01DX011 (ip), vehicle: carboxymethylcellulose (CMC)).
